The text below walks through data of ChEMBL document CHEMBL2163320, “Benzofuranones as potential antinociceptive agents: structure-activity relationships” (2012).

In test [1] the test system is Mus musculus. The experiment in a line: Antinociceptive activity in Swiss mouse assessed as inhibition of acetic acid-induced abdominal constriction at 30 mg/kg administered 30 to 60 mins prior to acetic acid challenge measured over 20 mins by writhing test. The test is classed as functional, Abdomen.
In test [2] the test system is Mus musculus. The test can be described thus: Antinociceptive activity in Swiss mouse assessed as inhibition of acetic acid-induced abdominal constriction administered 30 to 60 mins prior to acetic acid challenge measured over 20 mins by writhing test. The settings on record: Abdomen; for ED50: read-out: ID50 (the source's name). The test is classed as functional.
The test system of test [3] is Mus musculus. The test can be described thus: Antinociceptive activity in Swiss mouse assessed as inhibition of acetic acid-induced abdominal constriction at 10 mg/kg administered 30 to 60 mins prior to acetic acid challenge measured over 20 mins by writhing test. The test is classed as functional, Abdomen.

Molecules are shown by their SMILES.

Turning to `O=C(CC1OC(=O)c2ccccc21)c1ccc(Cl)c(Cl)c1` (configuration not stated), in the test with Mus musculus [1], the Imax amounted to 90.7%. In addition, in the test with Mus musculus [2], the ED50 was found to be 34.6 µmol/kg.

`COc1ccc(C(=O)CC2OC(=O)c3ccccc32)cc1OC` (configuration not stated): the Imax in the test with Mus musculus [3] is 49.4%.

With `O=C(CC1OC(=O)c2ccccc21)c1ccc(Cl)cc1` (configuration not stated), the Imax with Mus musculus [1] came out at 97.7%; in the test with Mus musculus [3], 73.5%. Further, the inhibition result in the test with Mus musculus [2] was “Dose-dependent effect”. In the test on Mus musculus [2], the ED50 stood at 33.7 µmol/kg.
